# Laboratory results: US11466007B2, “Substituted lactams showing serotonin 5-HT receptor activity” (Sumitomo Pharma Co., Ltd., priority 2018, dated 2022)
# Test system: not listed separately
# Test: Test 4: metabolic stability test in human hepatic microsome
# Assay type: in vitro ADME
# Settings: 0.1 mg/mL microsome, 0.1 μmol/L compound, NADPH, 37° C., 30 minutes
# Description: Test 4: Metabolic Stability Test in Human Hepatic Microsome
# The stability of the present compound in human hepatic microsome metabolism was evaluated as mentioned below. Human hepatic microsome was obtained from Xenontech. Human hepatic microsome, NADPH, and each test compound were mixed in 25 mmol/L phosphate buffer solution (pH 7.4) to reach the following concentrations as shown below, and the mixture was incubated at 37° C. for 30 minutes. • Human hepatic microsome: 0.1 mg/mL • NAPDH: 3.2 mmol/L • Test compound: 0.1 μmol/L
# The residual ratio of the test compound in each sample after 30 minutes was measured by LC-MS, and the metabolic stability in human hepatic microsome was calculated from the following formula. Metabolic stability in human hepatic microsome (mL/min/mg protein)=−LN(residual ratio)/30/0.1
row,Compound,Metabolic stability in human hepatic microsome
1,Cn1ccc2c1CCN(CCN1CCN(c3nsc4ccccc34)CC1)C2=O [Example 61],0.056 mL/min/mg protein
2,"O=C1c2cccnc2CCN1CCN1CCN(c2noc3ccccc23)CC1 [Example 153, 6-{2-[4-(1,2-Benzoisoxazol-3-yl)piperazin-1-yl]ethyl}-7,8-dihydro-1,6-naphthyridin-5(6H)-one]",<0.05 mL/min/mg protein
3,O=c1c2ncccc2ccn1CCN1CCN(c2noc3ccccc23)CC1 [Example 117],<0.05 mL/min/mg protein
4,COc1cc2c(cn1)C(=O)N(CCN1CCC(c3noc4ccccc34)CC1)CC2 [Example 14],<0.01 mL/min/mg protein
5,O=C1c2oc(C3CC3)nc2CCN1CCN1CCC(c2noc3ccccc23)CC1 [Example 68],0.056 mL/min/mg protein
6,CC(C)n1ncc2c1CCN(CCN1CCC(c3noc4ccccc34)CC1)C2=O [Example 159],<0.05 mL/min/mg protein
7,CC(C)c1nc2c(o1)C(=O)N(CCN1CCC(c3noc4ccccc34)CC1)CC2 [Example 164],0.097 mL/min/mg protein
8,Cc1cc2c(n1C)CCCN(CCN1CCC(c3noc4ccccc34)CC1)C2=O [Example 166],<0.05 mL/min/mg protein
9,Cn1cc2c(n1)C(=O)N(CCN1CCC(c3noc4ccccc34)CC1)CC2 [Example 156],<0.05 mL/min/mg protein
10,O=C1c2cncnc2CCN1CCN1CCC(c2noc3ccccc23)CC1 [Example 57],0.013 mL/min/mg protein
11,Cn1cc2c(n1)CCCN(CCN1CCN(c3nsc4ccccc34)CC1)C2=O [Example 42],0.100 mL/min/mg protein
12,O=C1c2ncccc2CCN1CCN1CCN(c2nsc3cc(F)ccc23)CC1 [Example 27],0.048 mL/min/mg protein
13,Cc1noc2c1C(=O)N(CCN1CCC(c3noc4ccccc34)CC1)CC2 [Example 33],0.074 mL/min/mg protein
14,Cn1cc2c(n1)CCCN(CCN1CCC(c3noc4ccccc34)CC1)C2=O [Example 41],<0.01 mL/min/mg protein
15,Cc1ncc2c(n1)CCN(CCN1CCN(c3nsc4ccccc34)CC1)C2=O [Example 90],0.070 mL/min/mg protein
16,O=C1c2cccnc2CCN1CCN1CCC(c2noc3ccccc23)CC1 [Example 128],<0.05 mL/min/mg protein
17,Cn1cnc2c1C(=O)N(CCN1CCC(c3noc4ccccc34)CC1)CC2 [Example 133],<0.05 mL/min/mg protein
18,O=C1c2ncccc2CCC1CCN1CCC(c2noc3ccccc23)CC1 (stereo not shown) [Example 24],0.018 mL/min/mg protein
19,Cn1ncc2c1CCC(CCN1CCC(c3noc4ccccc34)CC1)C2=O (stereo not shown) [Example 28],0.017 mL/min/mg protein
20,O=C1c2cccnc2CCN1CCN1CCC(c2noc3cc(F)ccc23)CC1 [Example 121],<0.05 mL/min/mg protein
21,Cn1cnc2c1CCN(CCN1CCC(c3noc4ccccc34)CC1)C2=O [Example 16],<0.01 mL/min/mg protein
22,O=C1c2occc2CCN1CCN1CCC(c2noc3ccccc23)CC1 [Example 127],<0.05 mL/min/mg protein
23,"Cc1ncc2c(n1)CCN(CCN1CCC(c3noc4ccccc34)CC1)C2=O [Example 88, 6-{2-[4-(1,2-Benzoisoxazol-3-yl)piperidin-1-yl]ethyl}-2-methyl-7,8-dihydropyrido[4,3-d]pyrimidin-5(6H)-one]",<0.01 mL/min/mg protein
24,Cc1ccc2onc(C3CCN(CCN4CCc5cccnc5C4=O)CC3)c2c1 [Example 89],0.050 mL/min/mg protein

row,Compound,Metabolic stability in human hepatic microsome
1,Cn1ncc2c1CCC(CCN1CCN(c3nsc4ccccc34)CC1)C2=O (stereo not shown) [Example 29],0.063 mL/min/mg protein
2,Cn1cnc2c1C(=O)N(CCN1CCC(c3noc4ccccc34)CC1)CCC2 [Example 134],<0.05 mL/min/mg protein
3,O=C1c2ncccc2CCN1CCN1CCC(c2nsc3ccccc23)CC1 [Example 26],<0.01 mL/min/mg protein
4,"Cn1ccc2c1CCCN(CCN1CCN(c3noc4ccccc34)CC1)C2=O [Example 109, 5-{2-[4-(1,2-Benzoisoxazol-3-yl)piperazin-1-yl]ethyl}-1-methyl-5,6,7,8-tetrahydropyrrolo[3,2-c]azepin-4 (H)-one]",<0.01 mL/min/mg protein
5,O=C1c2ncccc2CCN1CCN1CCC(c2noc3cc(F)ccc23)CC1 [Example 4],0.011 mL/min/mg protein
6,Cc1c2c(nn1C)CCN(CCN1CCN(c3noc4ccccc34)CC1)C2=O [Example 171],<0.05 mL/min/mg protein
7,Cn1ncc2c1CCCN(CCN1CCN(c3noc4ccccc34)CC1)C2=O [Example 80],0.012 mL/min/mg protein
8,Cc1cc2c(cn1)C(=O)N(CCN1CCC(c3noc4ccccc34)CC1)CC2 [Example 135],<0.05 mL/min/mg protein
9,"Cc1cc2ccn(CCN3CCN(c4noc5ccccc45)CC3)c(=O)c2cn1 [Example 113, 2-{2-[4-(1,2-Benzoisoxazol-3-yl)piperazin-1-yl]ethyl}-6-methyl-2,7-naphthyridin-1(2H)-one]",0.079 mL/min/mg protein
10,Cc1nc2c(o1)CCN(CCN1CCC(c3noc4ccccc34)CC1)C2=O [Example 39],0.016 mL/min/mg protein
11,O=C1c2nc(Cl)ccc2CCN1CCN1CCN(c2noc3ccccc23)CC1 [Example 144],<0.05 mL/min/mg protein
12,Cc1nccc2c1C(=O)N(CCN1CCN(c3noc4ccccc34)CC1)CC2 [Example 85],0.046 mL/min/mg protein
13,Cc1nc2c(o1)C(=O)N(CCN1CCC(c3noc4ccccc34)CC1)CCC2 [Example 154],<0.05 mL/min/mg protein
14,"O=C1c2cn[nH]c2CCN1CCN1CCC(c2noc3ccccc23)CC1 [Example 189, 5-{2-[4-(1,2-Benzoisoxazol-3-yl)piperidin-1-yl]ethyl}-1,5,6,7-tetrahydro-4H-pyrazolo[4,3-c]pyridin-4-one]",<0.05 mL/min/mg protein
15,O=C1c2cn(C3CC3)nc2CCN1CCN1CCC(c2noc3ccccc23)CC1 [Example 76],0.018 mL/min/mg protein
16,O=C1c2ncccc2CCN1CCN1CCC(c2noc3ccc(F)cc23)CC1 [Example 5],<0.01 mL/min/mg protein
17,COc1ncc2c(n1)CCN(CCN1CCC(c3noc4ccccc34)CC1)C2=O [Example 176],<0.05 mL/min/mg protein
18,Cc1nc2c(o1)C(=O)N(CCN1CCN(c3nsc4ccccc34)CC1)CCC2 [Example 46],0.018 mL/min/mg protein
19,O=C1c2ncccc2CCN1CCN1CCN(c2nsc3ccccc23)CC1 [Example 7],0.041 mL/min/mg protein
20,Cc1nn(C)c2c1C(=O)N(CCN1CCN(c3noc4ccccc34)CC1)CCC2 [Example 92],0.065 mL/min/mg protein
21,Cn1cc2c(n1)CCN(CCN1CCC(c3noc4ccccc34)CC1)C2=O [Example 17],<0.01 mL/min/mg protein
22,Cn1ncc2c1CCCC(CCN1CCC(c3noc4ccccc34)CC1)C2=O (stereo not shown) [Example 30],0.065 mL/min/mg protein
23,Cn1ncc2c1CCN(CCN1CCN(c3nsc4ccccc34)CC1)C2=O [Example 63],<0.01 mL/min/mg protein
24,"O=C1c2[nH]ncc2CCN1CCN1CCC(c2noc3ccccc23)CC1 [Example 98, 6-{2-[4-(1,2-Benzoisoxazol-3-yl)piperidin-1-yl]ethyl}-1,4,5,6-tetrahydro-7H-pyrazolo[3,4-c]pyridin-7-one]",0.013 mL/min/mg protein

# Target: human D2 receptor (Homo sapiens (Human), UniProt P14416)
# Test: Test 1: binding activity for human D2 receptor ([3H]Spiperone)
# Settings: ratio of D2 Ki to 5-HT1A Ki
# Description: Test 1: Evaluation of Binding Activity for Human 5-HT1A Receptor, Human 5-HT2A Receptor, and Human D2 Receptor
# Binding affinity of the present compound for human 5-HT1A receptor, human 5-HT2A receptor, and human D2 receptor was measured by the following procedures.
# Each mixture was incubated at room temperature for 60 minutes. Then, the mixture was added quickly on a glassfiber filter plate (Multiscreen FB, Millipore, Inc.) coated with 0.3% aqueous polyethylenimine, and vacuum-filtered. Radioactivity remaining on the filter was measured with a liquid scintillation counter (PerkinElmer, Inc.). Binding inhibition rate was calculated from the following formula.
# Ki of each compound was calculated from the following formula. Binding inhibition constant (Ki)=IC50/(1+S/Kd) wherein S is concentration of ligand; Kd is a binding dissociation constant of ligand to membrane, which is calculated from a saturated binding experiment conducted with the same cell membrane. A small Ki value means strong binding ability to a receptor.
# Sequence of human D2 receptor (P14416 whole entry): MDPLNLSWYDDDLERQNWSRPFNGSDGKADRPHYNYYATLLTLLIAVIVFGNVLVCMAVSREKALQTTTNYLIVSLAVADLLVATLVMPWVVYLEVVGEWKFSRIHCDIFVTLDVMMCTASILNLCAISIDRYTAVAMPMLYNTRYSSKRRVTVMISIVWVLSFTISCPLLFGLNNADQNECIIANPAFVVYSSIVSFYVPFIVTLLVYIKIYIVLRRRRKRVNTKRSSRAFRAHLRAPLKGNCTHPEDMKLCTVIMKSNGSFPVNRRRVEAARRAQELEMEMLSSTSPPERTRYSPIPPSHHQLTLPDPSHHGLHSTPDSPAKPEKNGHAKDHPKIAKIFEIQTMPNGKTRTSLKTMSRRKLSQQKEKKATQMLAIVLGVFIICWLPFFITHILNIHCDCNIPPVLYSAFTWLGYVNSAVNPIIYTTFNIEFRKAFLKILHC
row,Compound,D2 Ki/5-HT1A Ki
1,"Cn1cnc2c1CCCN(CCN1CCC(c3noc4ccccc34)CC1)C2=O [Example 101, 5-{2-[4-(1,2-Benzoisoxazol-3-yl)piperidin-1-yl]ethyl}-1-methyl-5,6,7,8-tetrahydroimidazo[4,5-c]azepin-4(1H)-one]",17
